Measured values published in ChEMBL document CHEMBL2434896, “Carbonic anhydrase inhibitors. Synthesis of heterocyclic 4-substituted pyridine-3-sulfonamide derivatives and their inhibition of the human cytosolic isozymes I and II and transmembrane tumor-associated isozymes IX and XII” (Eur J Med Chem, 2013).
Active and inactive are the calls of the source. The calls are words filed in the database; no cut-off is given here.

How the values were obtained:
Carbonic anhydrase 9 = Carbonic anhydrase 9 (Homo sapiens, UniProt Q16790); assay: Inhibition of human carbonic anhydrase 9 after 15 mins by stopped flow CO2 hydration assay
HL-60(TB) = assay: Growth inhibition of human HL-60(TB) cells at 10 uM after 48 hrs by sulforhodamine B assay; type: functional
SR = assay: Growth inhibition of human SR cells at 10 uM after 48 hrs by sulforhodamine B assay; type: functional; conditions: read-out: GI
MCF7 = assay: Growth inhibition of human MCF7 cells at 10 uM after 48 hrs by sulforhodamine B assay; type: functional; conditions: MCF7, 48 h, read-out: GI
RXF 393 = assay: Growth inhibition of human RXF393 cells at 10 uM after 48 hrs by sulforhodamine B assay; type: functional
CAKI-1 = assay: Growth inhibition of human CAKI-1 cells at 10 uM after 48 hrs by sulforhodamine B assay; type: functional; conditions: CAKI-1, 48 h, read-out: GI
OVCAR-3 = assay: Growth inhibition of human OVCAR3 cells at 10 uM after 48 hrs by sulforhodamine B assay; type: functional
IGROV-1 = assay: Growth inhibition of human IGROV1 cells at 10 uM after 48 hrs by sulforhodamine B assay; type: functional
RPMI-8226 = assay: Growth inhibition of human RPMI8226 cells at 10 uM after 48 hrs by sulforhodamine B assay; type: functional
A498 = assay: Growth inhibition of human A498 cells at 10 uM after 48 hrs by sulforhodamine B assay; type: functional
HT-29 = assay: Growth inhibition of human HT-29 cells at 10 uM after 48 hrs by sulforhodamine B assay; type: functional
HCT-116 = assay: Growth inhibition of human HCT116 cells at 10 uM after 48 hrs by sulforhodamine B assay; type: functional; conditions: HCT-116, 48 h, read-out: GI
UACC-62 = assay: Growth inhibition of human UACC62 cells at 10 uM after 48 hrs by sulforhodamine B assay; type: functional
DU-145 = assay: Growth inhibition of human DU145 cells at 10 uM after 48 hrs by sulforhodamine B assay; type: functional
NCI-H460 = assay: Growth inhibition of human NCI-H460 cells at 10 uM after 48 hrs by sulforhodamine B assay; type: functional
KM12 = assay: Growth inhibition of human KM12 cells at 10 uM after 48 hrs by sulforhodamine B assay; type: functional
SK-MEL-28 = assay: Growth inhibition of human SK-MEL-28 cells at 10 uM after 48 hrs by sulforhodamine B assay; type: functional, cell-based
SF-539 = assay: Growth inhibition of human SF539 cells at 10 uM after 48 hrs by sulforhodamine B assay; type: functional
Malme-3M = assay: Growth inhibition of human MALME-3M cells at 10 uM after 48 hrs by sulforhodamine B assay; type: functional; conditions: read-out: GI
OVCAR-4 = assay: Growth inhibition of human OVCAR4 cells at 10 uM after 48 hrs by sulforhodamine B assay; type: functional
T47D = assay: Growth inhibition of human T47D cells at 10 uM after 48 hrs by sulforhodamine B assay; type: functional
NCI/ADR-RES = assay: Growth inhibition of human NCI-ADR-RES cells at 10 uM after 48 hrs by sulforhodamine B assay; type: functional
A549 = assay: Growth inhibition of human A549/ATCC cells at 10 uM after 48 hrs by sulforhodamine B assay; type: functional
Hs-578T = assay: Growth inhibition of human Hs 578T cells at 10 uM after 48 hrs by sulforhodamine B assay; type: functional
MDA-MB-231 = assay: Growth inhibition of human MDA-MB-231 cells at 10 uM after 48 hrs by sulforhodamine B assay; type: functional
SF-268 = assay: Growth inhibition of human SF268 cells at 10 uM after 48 hrs by sulforhodamine B assay; type: functional
OVCAR-8 = assay: Growth inhibition of human OVCAR8 cells at 10 uM after 48 hrs by sulforhodamine B assay; type: functional; conditions: OVCAR-8, 48 h, read-out: GI
NCI-H23 = assay: Growth inhibition of human NCI-H23 cells at 10 uM after 48 hrs by sulforhodamine B assay; type: functional
ACHN = assay: Growth inhibition of human ACHN cells at 10 uM after 48 hrs by sulforhodamine B assay; type: functional
SK-MEL-2 = assay: Growth inhibition of human SK-MEL-2 cells at 10 uM after 48 hrs by sulforhodamine B assay; type: functional
MDA-MB-435 = assay: Growth inhibition of human MDA-MB-435 cells at 10 uM after 48 hrs by sulforhodamine B assay; type: functional
NCI-H226 = assay: Growth inhibition of human NCI-H226 cells at 10 uM after 48 hrs by sulforhodamine B assay; type: functional
NCI-H322M = assay: Growth inhibition of human NCI-H322M cells at 10 uM after 48 hrs by sulforhodamine B assay; type: functional; conditions: read-out: GI
UACC-257 = assay: Growth inhibition of human UACC257 cells at 10 uM after 48 hrs by sulforhodamine B assay; type: functional
SN12C = assay: Growth inhibition of human SN12C cells at 10 uM after 48 hrs by sulforhodamine B assay; type: functional
M14 = assay: Growth inhibition of human M14 cells at 10 uM after 48 hrs by sulforhodamine B assay; type: functional; conditions: M14, 48 h, read-out: GI
786-0 = assay: Growth inhibition of human 786-0 cells at 10 uM after 48 hrs by sulforhodamine B assay; type: functional
EKVX = assay: Growth inhibition of human EKVX cells at 10 uM after 48 hrs by sulforhodamine B assay; type: functional
UO-31 = assay: Growth inhibition of human UO31 cells at 10 uM after 48 hrs by sulforhodamine B assay; type: functional; conditions: UO-31, 48 h, read-out: GI
BT-549 = assay: Growth inhibition of human BT549 cells at 10 uM after 48 hrs by sulforhodamine B assay; type: functional
HCC 2998 = assay: Growth inhibition of human HCC2998 cells at 10 uM after 48 hrs by sulforhodamine B assay; type: functional
U-251 = assay: Growth inhibition of human U251 cells at 10 uM after 48 hrs by sulforhodamine B assay; type: functional
SNB-19 = assay: Growth inhibition of human SNB19 cells at 10 uM after 48 hrs by sulforhodamine B assay; type: functional
SK-MEL-5 = assay: Growth inhibition of human SK-MEL-5 cells at 10 uM after 48 hrs by sulforhodamine B assay; type: functional
SF-295 = assay: Growth inhibition of human SF295 cells at 10 uM after 48 hrs by sulforhodamine B assay; type: functional
SK-OV-3 = assay: Growth inhibition of human SKOV3 cells at 10 uM after 48 hrs by sulforhodamine B assay; type: functional
MOLT-4 = assay: Growth inhibition of human MOLT4 cells at 10 uM after 48 hrs by sulforhodamine B assay; type: functional; conditions: MOLT-4, 48 h, read-out: GI
HCT-15 = assay: Growth inhibition of human HCT15 cells at 10 uM after 48 hrs by sulforhodamine B assay; type: functional; conditions: HCT-15, 48 h, read-out: GI
HOP-62 = assay: Growth inhibition of human HOP62 cells at 10 uM after 48 hrs by sulforhodamine B assay; type: functional
SNB-75 = assay: Growth inhibition of human SNB75 cells at 10 uM after 48 hrs by sulforhodamine B assay; type: functional
COLO 205 = assay: Growth inhibition of human COLO205 cells at 10 uM after 48 hrs by sulforhodamine B assay; type: functional
CCRF-CEM = assay: Growth inhibition of human CCRF-CEM cells at 10 uM after 48 hrs by sulforhodamine B assay; type: functional
TK-10 = assay: Growth inhibition of human TK10 cells at 10 uM after 48 hrs by sulforhodamine B assay; type: functional
OVCAR-5 = assay: Growth inhibition of human OVCAR5 cells at 10 uM after 48 hrs by sulforhodamine B assay; type: functional
NCI-H522 = assay: Growth inhibition of human NCI-H522 cells at 10 uM after 48 hrs by sulforhodamine B assay; type: functional
PC-3 = assay: Growth inhibition of human PC3 cells at 10 uM after 48 hrs by sulforhodamine B assay; type: functional
LOX IMVI = assay: Growth inhibition of human LOXIMVI cells at 10 uM after 48 hrs by sulforhodamine B assay; type: functional
SW-620 = assay: Growth inhibition of human SW620 cells at 10 uM after 48 hrs by sulforhodamine B assay; type: functional

NS(=O)(=O)c1cnccc1N1CCN(c2ccc(F)cc2)CC1
Ki (Carbonic anhydrase 9): 239 nM

NS(=O)(=O)c1cnccc1N1CCN(c2ccccc2F)CC1
growth inhibition (GI) (HL-60(TB)): inactive
inhibition of growth at 10 µM (SR): 6%
inhibition of growth at 10 µM (MCF7): 6%
growth inhibition (GI) (RXF 393): inactive
inhibition of growth at 10 µM (CAKI-1): 3%
growth inhibition (GI) (OVCAR-3): inactive
growth inhibition (GI) (IGROV-1): inactive
growth inhibition (GI) (RPMI-8226): inactive
growth inhibition (GI) (A498): inactive
growth inhibition (GI) (HT-29): inactive
inhibition of growth at 10 µM (HCT-116): 3%
growth inhibition (GI) (UACC-62): inactive
growth inhibition (GI) (DU-145): inactive
growth inhibition (GI) (NCI-H460): inactive
growth inhibition (GI) (KM12): inactive
growth inhibition (GI) (SK-MEL-28): inactive
growth inhibition (GI) (SF-539): inactive
inhibition of growth at 10 µM (Malme-3M): 4%
growth inhibition (GI) (OVCAR-4): inactive
growth inhibition (GI) (T47D): inactive
growth inhibition (GI) (NCI/ADR-RES): inactive
growth inhibition (GI) (A549): inactive
growth inhibition (GI) (Hs-578T): inactive
growth inhibition (GI) (MDA-MB-231): inactive
growth inhibition (GI) (SF-268): inactive
inhibition of growth at 10 µM (OVCAR-8): 2%
growth inhibition (GI) (NCI-H23): inactive
growth inhibition (GI) (ACHN): inactive
growth inhibition (GI) (SK-MEL-2): inactive
growth inhibition (GI) (MDA-MB-435): inactive
growth inhibition (GI) (NCI-H226): inactive
inhibition of growth at 10 µM (NCI-H322M): 7%
growth inhibition (GI) (UACC-257): inactive
growth inhibition (GI) (SN12C): inactive
inhibition of growth at 10 µM (M14): 5%
growth inhibition (GI) (786-0): inactive
growth inhibition (GI) (EKVX): inactive
inhibition of growth at 10 µM (UO-31): 13%
growth inhibition (GI) (BT-549): inactive
growth inhibition (GI) (HCC 2998): inactive
growth inhibition (GI) (U-251): inactive
growth inhibition (GI) (SNB-19): inactive
growth inhibition (GI) (SK-MEL-5): inactive
growth inhibition (GI) (SF-295): inactive
growth inhibition (GI) (SK-OV-3): inactive
inhibition of growth at 10 µM (MOLT-4): 2%
inhibition of growth at 10 µM (HCT-15): 1%
growth inhibition (GI) (HOP-62): inactive
growth inhibition (GI) (SNB-75): inactive
growth inhibition (GI) (COLO 205): inactive
growth inhibition (GI) (CCRF-CEM): inactive
growth inhibition (GI) (TK-10): inactive
growth inhibition (GI) (OVCAR-5): inactive
growth inhibition (GI) (NCI-H522): inactive
Ki (Carbonic anhydrase 9): 148 nM
growth inhibition (GI) (PC-3): inactive
growth inhibition (GI) (LOX IMVI): inactive
growth inhibition (GI) (SW-620): inactive

Cc1cc(C)n(-c2ccncc2S(N)(=O)=O)n1
Ki (Carbonic anhydrase 9): 24.8 nM
